Measurements from ChEMBL document CHEMBL1201862, “PubChem BioAssay data set” (2004).
Active and inactive are the calls of the source.

Assays:
Protein Wnt-3a = Protein Wnt-3a (Mus musculus, UniProt P27467); experiment: Wnt3a-driven reporter signaling inhibition, dose response, selectivity assay for Gli-SUFU antagonist project, Wnt-LIGHT cells, luminescence (AID 651570); type: functional; settings: read-out: IC50_Mean;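 further: Wnt-LIGHT reporter cells stimulated with conditioned medium from Wnt3a-producing cells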
Sequence of Protein Wnt-3a (P27467 whole entry): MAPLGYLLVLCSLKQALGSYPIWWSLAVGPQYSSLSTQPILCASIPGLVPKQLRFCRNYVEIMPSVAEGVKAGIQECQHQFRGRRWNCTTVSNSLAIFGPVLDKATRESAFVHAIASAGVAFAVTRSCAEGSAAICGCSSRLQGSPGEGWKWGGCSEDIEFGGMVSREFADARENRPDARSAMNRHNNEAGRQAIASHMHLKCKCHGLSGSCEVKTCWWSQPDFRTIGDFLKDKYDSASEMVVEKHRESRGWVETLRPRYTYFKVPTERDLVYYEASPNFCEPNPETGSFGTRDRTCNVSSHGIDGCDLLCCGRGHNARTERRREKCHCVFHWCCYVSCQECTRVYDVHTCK

[1] = target: T1, Polyadenylate-binding protein 1 (Homo sapiens, UniProt P11940); experiment: PABP1 MLLE–PAM2 interaction inhibitors, dose response, miRNA deadenylation inhibitor project, biochemical, fluorescence polarization, Cy5-PAM2 peptide, secondary (AID 602260); type: functional; settings: read-out: IC50_Mean
T1 sequence (P11940 whole entry): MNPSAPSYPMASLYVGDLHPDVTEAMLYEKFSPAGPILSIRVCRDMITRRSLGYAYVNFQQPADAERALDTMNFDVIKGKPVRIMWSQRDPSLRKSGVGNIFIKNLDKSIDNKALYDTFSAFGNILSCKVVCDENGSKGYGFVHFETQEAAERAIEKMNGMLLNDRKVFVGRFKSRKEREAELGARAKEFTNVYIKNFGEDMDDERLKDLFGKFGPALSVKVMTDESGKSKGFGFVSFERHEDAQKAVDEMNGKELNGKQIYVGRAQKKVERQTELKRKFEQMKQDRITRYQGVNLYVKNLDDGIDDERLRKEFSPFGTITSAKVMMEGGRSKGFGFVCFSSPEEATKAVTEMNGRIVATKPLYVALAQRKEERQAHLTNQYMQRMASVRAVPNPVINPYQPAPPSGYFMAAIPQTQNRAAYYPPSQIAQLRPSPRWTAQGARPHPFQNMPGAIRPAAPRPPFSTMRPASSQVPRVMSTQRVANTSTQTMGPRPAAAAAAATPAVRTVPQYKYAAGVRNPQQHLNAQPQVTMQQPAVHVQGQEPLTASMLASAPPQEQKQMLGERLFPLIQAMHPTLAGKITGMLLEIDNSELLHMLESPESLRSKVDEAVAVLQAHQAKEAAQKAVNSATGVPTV

Melanocortin receptor 4 [2] = target: T2, Melanocortin receptor 4 (Homo sapiens, UniProt P32245); type: functional, cell-based;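 further: Cell-based assay with luminescence read-out, confirmatory dose-response testing for agonist activity of biased ligands at MC4R; human U2OS cells with tagged receptor and beta-arrestin; potency of agonists that increase receptor coupling to beta-arrestin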
T2 sequence (P32245 whole entry): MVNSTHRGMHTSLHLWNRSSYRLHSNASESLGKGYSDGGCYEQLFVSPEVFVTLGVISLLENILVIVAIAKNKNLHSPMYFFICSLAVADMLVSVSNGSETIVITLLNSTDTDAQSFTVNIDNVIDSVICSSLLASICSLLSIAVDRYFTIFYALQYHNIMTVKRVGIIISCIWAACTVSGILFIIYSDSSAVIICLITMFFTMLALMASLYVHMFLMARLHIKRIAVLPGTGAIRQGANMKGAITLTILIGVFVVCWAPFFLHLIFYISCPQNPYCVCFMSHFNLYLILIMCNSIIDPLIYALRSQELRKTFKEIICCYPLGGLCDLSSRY

[3] = target: T1, Polyadenylate-binding protein 1; experiment: PABP1 MLLE–PAM2 binding inhibitor potency, dose response, biochemical, fluorescence polarization, FITC-PAM2 peptide (AID 602259); type: functional; settings: read-out: IC50_Mean
[4] = AlphaScreen signal interference compounds, dose response, artefact control for ARNT-TACC3 interaction inhibitor project, biochemical, luminescence, cherry-pick (AID 651705); type: functional;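 further: AlphaScreen bead proximity signal that flags compounds interfering with the detection technology; potency reflects signal decrease which marks the compound as an assay artifact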
[5] = inhibitors of intracellular T. cruzi replication, confirmation, NIH3T3 host cells, beta-gal luminescence (AID 2044); type: functional, cell-based;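 further: intracellular parasites grown in NIH/3T3 mouse fibroblasts as host cells; luminescent beta-galactosidase reporter signal from transgenic T. cruzi replicating inside host cells; inhibitors lower the luminescence signal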
[6] = cytotoxicity toward NIH3T3 fibroblasts, dose response, counter-screen, cell-based, ATP luminescence, mouse fibroblasts (AID 2010); type: functional;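 further: cells exposed to compound for about 90 hours before reading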
[7] = target: T3, Heat shock factor protein 1 (Mus musculus, UniProt P38532); experiment: HSF1 potentiators in luciferase reporter cells, confirmation, cell-based, NIH3T3, luminescence, dose retest (AID 435004); type: functional;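 further: stress induced by proteasome inhibitor MG132 added 30 min after compound; luciferase reporter driven by HSF1 response element in NIH3T3 cells; actives raise luminescence as potentiators of the MG132 stress response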
T3 sequence (P38532 whole entry): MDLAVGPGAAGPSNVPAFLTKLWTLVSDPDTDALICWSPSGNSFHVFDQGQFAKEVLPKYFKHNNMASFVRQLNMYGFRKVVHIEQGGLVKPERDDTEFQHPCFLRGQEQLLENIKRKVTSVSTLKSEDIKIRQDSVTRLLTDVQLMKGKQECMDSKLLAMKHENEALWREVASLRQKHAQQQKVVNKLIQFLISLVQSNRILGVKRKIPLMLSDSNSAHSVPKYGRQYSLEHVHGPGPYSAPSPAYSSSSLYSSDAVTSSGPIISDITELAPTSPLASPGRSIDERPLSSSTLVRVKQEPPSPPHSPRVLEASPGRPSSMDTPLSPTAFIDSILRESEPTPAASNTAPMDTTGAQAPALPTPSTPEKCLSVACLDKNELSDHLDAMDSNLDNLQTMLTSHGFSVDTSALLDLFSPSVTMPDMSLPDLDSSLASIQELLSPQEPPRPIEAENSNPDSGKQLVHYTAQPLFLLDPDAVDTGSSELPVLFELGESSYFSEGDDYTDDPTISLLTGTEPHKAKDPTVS

[8] = target: T4, Replicative DNA helicase DnaB (Mycobacterium tuberculosis, UniProt P9WMR3); experiment: DnaB intein splicing inhibitors, dose response, biochemical, cell-free fluorescence (AID 449749); type: functional
T4 sequence (P9WMR3 whole entry): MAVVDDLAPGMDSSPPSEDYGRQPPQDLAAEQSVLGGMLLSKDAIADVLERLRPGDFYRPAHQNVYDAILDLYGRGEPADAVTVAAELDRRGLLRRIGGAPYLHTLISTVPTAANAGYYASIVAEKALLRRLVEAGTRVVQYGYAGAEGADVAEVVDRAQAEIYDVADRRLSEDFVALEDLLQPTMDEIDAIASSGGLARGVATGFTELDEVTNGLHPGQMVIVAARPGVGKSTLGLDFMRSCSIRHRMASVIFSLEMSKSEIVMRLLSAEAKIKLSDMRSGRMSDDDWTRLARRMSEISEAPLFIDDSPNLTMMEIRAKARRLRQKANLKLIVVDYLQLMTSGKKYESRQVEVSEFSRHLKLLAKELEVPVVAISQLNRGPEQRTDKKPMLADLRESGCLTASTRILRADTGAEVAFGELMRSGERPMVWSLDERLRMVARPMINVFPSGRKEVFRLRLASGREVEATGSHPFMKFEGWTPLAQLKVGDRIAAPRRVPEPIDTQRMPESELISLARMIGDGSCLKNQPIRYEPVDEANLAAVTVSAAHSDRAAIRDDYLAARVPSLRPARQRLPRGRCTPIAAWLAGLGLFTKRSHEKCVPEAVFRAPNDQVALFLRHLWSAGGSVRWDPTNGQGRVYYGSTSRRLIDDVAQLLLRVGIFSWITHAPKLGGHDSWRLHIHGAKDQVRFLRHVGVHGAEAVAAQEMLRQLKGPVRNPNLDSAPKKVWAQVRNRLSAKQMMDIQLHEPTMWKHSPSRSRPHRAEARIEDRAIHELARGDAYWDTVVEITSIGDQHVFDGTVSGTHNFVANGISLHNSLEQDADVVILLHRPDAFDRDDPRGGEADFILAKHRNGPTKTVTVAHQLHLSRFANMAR

Protein RecA = target: T5, Protein RecA (Mycobacterium tuberculosis, UniProt P9WHJ3); experiment: Fluorescence Cell-Free Homogeneous Dose Retest to Identify Inhibitors of RecA-Intein Splicing Activity. [Related pubchem assays (depositor defined):AID2097, AID2223, AID489010, AID492950]; type: functional
T5 sequence (P9WHJ3 whole entry): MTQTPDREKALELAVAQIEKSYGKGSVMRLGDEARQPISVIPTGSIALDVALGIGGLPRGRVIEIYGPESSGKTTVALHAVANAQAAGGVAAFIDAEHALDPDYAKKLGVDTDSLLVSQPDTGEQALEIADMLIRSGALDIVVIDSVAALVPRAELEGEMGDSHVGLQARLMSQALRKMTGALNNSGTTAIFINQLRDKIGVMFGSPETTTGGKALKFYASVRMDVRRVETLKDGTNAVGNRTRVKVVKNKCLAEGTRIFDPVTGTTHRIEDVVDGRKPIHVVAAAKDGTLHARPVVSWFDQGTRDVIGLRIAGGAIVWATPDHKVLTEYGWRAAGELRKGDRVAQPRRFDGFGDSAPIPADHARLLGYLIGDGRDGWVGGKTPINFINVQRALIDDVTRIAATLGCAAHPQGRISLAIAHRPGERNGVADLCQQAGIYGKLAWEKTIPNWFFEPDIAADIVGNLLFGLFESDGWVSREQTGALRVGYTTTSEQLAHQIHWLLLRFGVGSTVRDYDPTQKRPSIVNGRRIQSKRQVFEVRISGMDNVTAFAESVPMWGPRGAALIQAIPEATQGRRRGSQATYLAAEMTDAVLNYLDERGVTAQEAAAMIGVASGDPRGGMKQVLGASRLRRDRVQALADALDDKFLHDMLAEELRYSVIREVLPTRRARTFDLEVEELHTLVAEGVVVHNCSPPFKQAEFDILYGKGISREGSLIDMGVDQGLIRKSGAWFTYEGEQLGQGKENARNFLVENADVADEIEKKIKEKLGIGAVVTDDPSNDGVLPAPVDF

Melanocortin receptor 4 [9] = target: T2, Melanocortin receptor 4; experiment: MC4R antagonist potency on cAMP, dose response, cell-based, TR-FRET, biased antagonists (AID 602298); type: functional;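 further: antagonist potency against agonist-stimulated cAMP production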
[10] = nonselective inhibitors of cellular cAMP signaling, dose response, counter-screen for MC4R biased antagonist project, cell-based, TR-FRET cAMP detection (AID 602305); type: functional;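 further: U2OS cells stimulated with forskolin near its EC80 as the cAMP inducer; potency is for inhibition of forskolin-stimulated cAMP signaling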
[11] = insulin promoter down-regulators in MIN6 cells, imaging, high-content screening, mouse beta cells (AID 1628); type: functional
[12] = cytotoxicity in MIN6 insulinoma cells, dose response, cytotoxicity control, cell-based, mouse insulinoma (AID 2122); type: functional;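 further: confirmatory high-throughput counterscreen run to flag cytotoxic compounds; mouse MIN-6 beta cells carrying an insulin promoter eGFP reporter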
[13] = target: T6, Apoptotic protease-activating factor 1 (Homo sapiens, UniProt O14727); experiment: SAR analysis of small molecule Activators of Apaf-1 in a Fluorescent assay.; type: functional; settings: read-out: EC50_Mean;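 further: caspase-3 cleavage of fluorogenic Rh110 DEVD substrate downstream of apoptosome activation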
T6 sequence (O14727 whole entry): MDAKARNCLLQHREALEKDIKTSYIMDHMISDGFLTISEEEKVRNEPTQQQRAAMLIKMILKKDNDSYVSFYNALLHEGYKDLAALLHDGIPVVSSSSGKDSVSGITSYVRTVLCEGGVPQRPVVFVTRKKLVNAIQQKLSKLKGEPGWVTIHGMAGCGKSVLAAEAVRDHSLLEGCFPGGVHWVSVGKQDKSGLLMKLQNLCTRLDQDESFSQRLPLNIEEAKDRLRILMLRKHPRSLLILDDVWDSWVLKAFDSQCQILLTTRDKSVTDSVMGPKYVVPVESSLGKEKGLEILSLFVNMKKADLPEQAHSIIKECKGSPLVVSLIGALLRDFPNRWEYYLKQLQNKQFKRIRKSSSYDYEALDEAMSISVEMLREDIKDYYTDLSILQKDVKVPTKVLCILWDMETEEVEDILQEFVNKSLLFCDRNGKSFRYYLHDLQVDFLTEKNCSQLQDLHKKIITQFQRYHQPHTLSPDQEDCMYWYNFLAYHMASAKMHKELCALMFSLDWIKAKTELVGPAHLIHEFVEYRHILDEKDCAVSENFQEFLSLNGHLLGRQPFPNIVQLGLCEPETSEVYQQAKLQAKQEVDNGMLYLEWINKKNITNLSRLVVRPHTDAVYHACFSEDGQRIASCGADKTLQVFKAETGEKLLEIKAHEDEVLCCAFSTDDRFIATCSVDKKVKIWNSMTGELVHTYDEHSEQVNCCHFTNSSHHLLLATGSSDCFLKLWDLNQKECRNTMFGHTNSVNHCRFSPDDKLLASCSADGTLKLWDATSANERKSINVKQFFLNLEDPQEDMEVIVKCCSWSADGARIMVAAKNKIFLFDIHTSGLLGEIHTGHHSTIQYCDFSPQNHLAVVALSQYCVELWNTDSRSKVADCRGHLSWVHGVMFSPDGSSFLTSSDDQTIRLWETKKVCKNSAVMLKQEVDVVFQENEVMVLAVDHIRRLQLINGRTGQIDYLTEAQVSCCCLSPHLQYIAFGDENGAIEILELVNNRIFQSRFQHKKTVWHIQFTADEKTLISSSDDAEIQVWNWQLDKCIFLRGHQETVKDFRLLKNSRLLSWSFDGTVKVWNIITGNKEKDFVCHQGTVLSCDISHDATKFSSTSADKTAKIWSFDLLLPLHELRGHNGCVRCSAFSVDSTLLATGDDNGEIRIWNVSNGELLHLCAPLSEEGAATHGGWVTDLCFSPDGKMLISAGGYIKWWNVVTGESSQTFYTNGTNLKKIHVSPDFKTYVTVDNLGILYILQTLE

[14] = target: T7, Methionyl-tRNA synthetase, putative (Trypanosoma brucei brucei, UniProt Q38C91); type: functional, Trypanosoma brucei brucei strain 927/4 GUTat10.1
T7 sequence (Q38C91 whole entry): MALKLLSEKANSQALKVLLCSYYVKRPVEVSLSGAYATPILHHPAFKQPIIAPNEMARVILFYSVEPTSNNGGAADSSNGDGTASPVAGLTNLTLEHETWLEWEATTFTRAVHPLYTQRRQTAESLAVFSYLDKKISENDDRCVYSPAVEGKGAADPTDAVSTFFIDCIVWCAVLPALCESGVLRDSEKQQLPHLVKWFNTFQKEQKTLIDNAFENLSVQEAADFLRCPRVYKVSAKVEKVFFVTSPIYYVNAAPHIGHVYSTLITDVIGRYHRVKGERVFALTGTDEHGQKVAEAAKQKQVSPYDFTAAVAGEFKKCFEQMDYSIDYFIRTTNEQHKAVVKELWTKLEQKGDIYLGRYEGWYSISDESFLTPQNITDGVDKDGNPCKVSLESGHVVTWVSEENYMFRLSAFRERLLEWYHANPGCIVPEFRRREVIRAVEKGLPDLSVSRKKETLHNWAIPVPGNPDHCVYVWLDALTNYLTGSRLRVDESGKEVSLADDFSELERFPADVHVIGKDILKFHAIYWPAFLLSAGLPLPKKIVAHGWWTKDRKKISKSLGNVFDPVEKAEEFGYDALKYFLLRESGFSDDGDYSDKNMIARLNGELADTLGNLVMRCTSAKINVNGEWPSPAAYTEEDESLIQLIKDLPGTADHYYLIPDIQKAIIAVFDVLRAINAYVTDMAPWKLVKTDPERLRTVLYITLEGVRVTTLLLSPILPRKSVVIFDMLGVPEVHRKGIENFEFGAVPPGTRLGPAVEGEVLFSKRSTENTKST

[15] = Counterscreen for inhibitors of Trypanosoma brucei methionyl tRNA synthetase (MetRS): Luminescence-based cell-based high throughput dose response assay to identify compounds that are cytotoxic to Jurkat human T lymphocyte cells.; type: functional
[16] = target: T7, Methionyl-tRNA synthetase, putative; type: functional, Trypanosoma brucei brucei strain 927/4 GUTat10.1; remark: listed apart in the source
HEK293 [17] = experiment: cells; settings: Homo sapiens
HEK293 [18] = experiment: cells; settings: Homo sapiens; remark: listed apart in the source

With `CC[N+](CC)(CC#Cc1ccccc1)CC#Cc1ccccc1` the IC50 (Protein Wnt-3a) was 35.2 µM (inactive).
For `Cc1ccc(OCC(=O)NC(=S)Nc2cccc(NC(=O)c3ccccc3)c2)cc1`, the IC50 [1] was > 66 µM (inactive), the EC50 (Melanocortin receptor 4 [2]) was > 89.2 µM (inactive) and the IC50 [3] was > 66 µM (inactive).
For `CC1CC1C(=O)Nc1nc(-c2ccccn2)cs1` (stereo unspecified), the AC50 [4] was 82.6 µM (active).
In the case of `O=C(CCl)c1ccc2c(c1)CCN2C(=O)C1CCCCC1`, the EC50 [5] is reported as 1.92 µM (active), the EC50 [6] is reported as 6.6 µM (active) and the EC50 [7] is reported as 4.1 µM (inconclusive). The AC50 [8] was 42.4 µM (active), the EC50 (Protein RecA) was 4.08 µM (active) and the IC50 (Melanocortin receptor 4 [9]) was > 64.6 µM (inactive). For the same compound, the IC50 [10] was > 64.6 µM (inactive).
In the case of `C=CCNc1nc2c(c(=O)n(C)c(=O)n2C)n1Cc1ccc(F)cc1`, the IC50 [11] is reported as 1.13 µM (active), the IC50 [12] is reported as 0.892 µM (active) and the IC50 (Protein Wnt-3a) is reported as 5.06 µM (active).
For `COc1ccc(C)cc1NC(=O)CCS(=O)(=O)c1ccc2c(c1)NC(=O)CS2`, the EC50 [13] was > 100 µM (inactive).
With `CC(C)N(c1ccccc1)c1ccc(NC(=O)COC(=O)CCN2C(=O)c3cccc([N+](=O)[O-])c3C2=O)cc1` the IC50 (Melanocortin receptor 4 [9]) was > 64.6 µM (inactive) and the IC50 [10] was > 64.6 µM (inactive).
For `CCOC(=O)CSc1nnc(-c2ccc(NS(=O)(=O)c3ccc(C)cc3)cc2)o1`, the IC50 (Melanocortin receptor 4 [9]) was > 64.6 µM (inactive) and the IC50 [10] was > 64.6 µM (inactive).
With `NC(Cc1ccc(Cl)cc1)c1csc(NC(=O)Nc2ccccc2)n1` (stereo unspecified) the EC50 (Melanocortin receptor 4 [2]) was > 89.2 µM (inactive), the IC50 [14] was 4.07 µM (active) and the IC50 [15] was 13.7 µM (inactive). For the same compound, the IC50 [16] was 2.09 µM (active), the EC50 (HEK293 [17]) was > 59.6 µM (inactive) and the EC50 (HEK293 [18]) was > 59.6 µM (inactive).
